Columns and labels:
[1] = target: human S1P3 receptor (Homo sapiens (Human), UniProt Q99500); experiment: In vitro functional activity (agonism) on human S1P3 receptors, CHO-human-S1P3-Aequorin assay; format: cell-based; details: aequorin luminescence; for EC50: read-out: S1P3 pEC50 (converted)
Experimental: In Vitro Functional Activity (Agonism) on Human S1P3 Receptors
The CHO-human-S1P3-Aeqorin assay (CHO/Gα16/AEQ/h-S1P3) was established at Solvay Pharmaceuticals. […] This luminescent response is dependent on the agonist concentration. Luminescence is measured using the MicroBeta Jet (Perkin Elmer). Agonistic effects of compounds are expressed as pEC50.

[2] = target: human S1P5 receptor (Homo sapiens (Human), UniProt Q9H228); experiment: In vitro functional activity (agonism) on human S1P5 receptors, CHO-human-S1P5-Aequorin assay; format: cell-based; details: aequorin luminescence; for EC50: read-out: S1P5 pEC50 (converted)
Chain of human S1P5 receptor (Q9H228 whole entry): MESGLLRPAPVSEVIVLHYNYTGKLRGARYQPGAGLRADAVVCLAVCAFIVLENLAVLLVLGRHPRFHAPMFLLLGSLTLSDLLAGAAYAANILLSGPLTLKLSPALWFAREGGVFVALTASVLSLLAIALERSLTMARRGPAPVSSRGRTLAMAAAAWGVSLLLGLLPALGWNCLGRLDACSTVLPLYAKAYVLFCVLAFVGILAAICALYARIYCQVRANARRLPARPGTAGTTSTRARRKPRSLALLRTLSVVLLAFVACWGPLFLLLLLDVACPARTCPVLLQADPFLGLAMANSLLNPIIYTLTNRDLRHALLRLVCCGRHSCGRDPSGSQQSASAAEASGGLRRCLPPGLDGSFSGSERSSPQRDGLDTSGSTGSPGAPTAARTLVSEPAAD
Experimental: In Vitro Functional Activity (Agonism) on Human 51P5 Receptors
The CHO-human-S1P5-Aeqorin assay was bought from Euroscreen, Brussels (Euroscreen, Technical dossier, Human Lysophospholid S1P5 (Edg8) receptor, DNA clone and CHO AequoScreen™ recombinant cell-line, catalog n°: ES-593-A, September 2006). Human-S1P5-Aequorin cells express mitochondrial targeted apo-Aequorin. […] This luminescent response is dependent on the agonist concentration. Luminescence is measured using the MicroBeta Jet (Perkin Elmer). Agonistic effects of compounds are expressed as pEC50.

[3] = target: T1, human S1P1 receptor (Homo sapiens (Human), UniProt P21453); details: agonism, determined using method A (aequorin)
T1 sequence (P21453 whole entry): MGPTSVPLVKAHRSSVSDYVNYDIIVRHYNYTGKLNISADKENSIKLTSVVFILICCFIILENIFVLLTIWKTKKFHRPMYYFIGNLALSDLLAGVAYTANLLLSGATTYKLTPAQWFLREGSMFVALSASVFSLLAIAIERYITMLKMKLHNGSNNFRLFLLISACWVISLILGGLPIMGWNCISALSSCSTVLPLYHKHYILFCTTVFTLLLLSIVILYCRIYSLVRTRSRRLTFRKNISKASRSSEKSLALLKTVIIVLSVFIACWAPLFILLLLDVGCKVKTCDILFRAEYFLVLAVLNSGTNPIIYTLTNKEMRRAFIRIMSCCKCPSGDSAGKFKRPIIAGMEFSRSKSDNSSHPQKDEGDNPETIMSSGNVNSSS
From the text: In Vitro Functional Activity (Agonism) on Human S1P1 Receptors (Method A)
The CHO-K1-human-S1P1-Acqorin assay was bought from Euroscreen Fast, Brussels (Euroscreen, Technical dossier, Human S1P1 (Edg1) receptor, DNA clone and CHO-K1 AequoScreen™ recombinant cell-line, catalog n°: FAST-0197 L, February 2010). Human-S1P1-Aequorin cells express mitochondrial targeted apo-Aequorin. Cells have to be loaded with coelanterazine, in order to reconstitute active Aequorin. After binding of agonists to the human S1P1 receptor the intracellular calcium concentration increases and binding of calcium to the apo-Aequorin/coelenterazine complex leads to an oxidation reaction of coelenterazine, which results in the production of apo-Aequorin, coelenteramide, CO2 and light ([…]max 469 nm). This luminescent response is dependent on the agonist concentration. Luminescence is measured using the MicroBeta Jet (Perkin Elmer). Agonistic effects of compounds are expressed as pEC50. Compounds were tested at a 10 points half log concentration range, and 2 independent experiments were performed in single point's measurements.

[4] = target: T1, human S1P1 receptor; experiment: In vitro functional activity (agonism) on human S1P1 receptors (method B), CHO-K1-human S1P1 cAMP assay; format: cell-based; details: determined using method B (cAMP, forskolin); for EC50: read-out: S1P1^B pEC50 (converted)
Experimental: The CHO-K1-Human S1P1-c-AMP assay was performed at Euroscreenfast, Brussels (Euroscreen, Human S1P1 coupling Gi/0, (Edg1) receptor, catalog no: FAST-0197C, December 2009).
Recombinant CHO-K1 cells expressing human S1P1, grown to mid-log Phase in culture media without antibiotics, detached, centrifuged and re-suspended. For agonist testing cells are mixed with compound and Forskolin and incubated at room temperature. Cells are lyses and cAMP concentration are estimated, according to the manufacturer specification, With the HTRF kit from CIS-BIO International (cat n°62AM2PEB).
Agonistic effects of compounds are expressed as a percentage of the activity of the reference compound at its EC100 concentration, EC50 is calculated and results are reported as pEC50.

Chain of human S1P3 receptor (Q99500 whole entry): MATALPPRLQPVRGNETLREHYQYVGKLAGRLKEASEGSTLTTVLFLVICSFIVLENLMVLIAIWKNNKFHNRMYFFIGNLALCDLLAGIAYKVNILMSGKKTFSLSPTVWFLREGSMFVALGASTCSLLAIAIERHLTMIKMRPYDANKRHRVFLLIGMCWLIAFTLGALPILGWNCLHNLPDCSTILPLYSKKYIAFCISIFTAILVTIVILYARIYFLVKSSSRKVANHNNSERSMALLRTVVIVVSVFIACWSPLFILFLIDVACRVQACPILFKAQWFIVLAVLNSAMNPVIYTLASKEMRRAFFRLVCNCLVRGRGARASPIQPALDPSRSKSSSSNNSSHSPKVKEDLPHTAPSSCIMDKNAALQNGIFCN

| EC50 [1] [µM] | EC50 [2] [µM] | EC50 [4] [µM] | SMILES | S1P3 pEC50 [1] | S1P5 pEC50 [2] | S1P1^A pEC50 [3] | S1P1^B pEC50 [4] |
| --- | --- | --- | --- | --- | --- | --- | --- |
| – | – | – | O=C(O)C1CC(N2CCc3oc(-c4ccc(OCc5ccc(F)c(F)c5)cc4)nc3C2)C1 (stereo not drawn) [Compound 277, 3-{2-[4-(3,4-Difluorobenzyloxy)-phenyl]-6,7-dihydro-H-oxazolo[4,5-c]pyridine-5-yl}-cyclobutane carboxylic acid] | <5.0 | 8.5 | 5.2 | – |
| 5.01 | 0.00501 | 0.251 | O=C(O)CCCN1CCc2oc(-c3ccc(OCc4ccccc4F)cc3)cc2C1 [Compound 35, 4-{2-[4-(2-Fluoro-benzyloxy)-phenyl]-6,7-dihydro-4H-furo[3,2-c]pyridine-5-yl}-butyric acid] | – | – | – | – |
| – | – | – | CC(CN1CCc2oc(-c3ccc(OCc4ccccc4)cc3)nc2C1)C(=O)O (stereo not drawn) [Compound 146, 3-[2-(4-Benzyloxy-phenyl)-6,7-dihydro-H-oxazolo[4,5-c]pyridine-5-yl]-2-methyl-propionic acid] | <5.0 | 7.8 | – | <5.5 |
| – | – | – | O=C(O)CCCN1CCc2oc(-c3ccc(OCc4ccccc4F)c(Cl)c3)nc2C1 [Compound 283, 4-{2-[4-(2-Fluoro-benzyloxy)-3-chloro-phenyl]-6,7-dihydro-H-oxazolo[4,5-c]pyridine-5-yl}-butyric acid] | <5 | 7.7 | <4.5 | – |
| – | – | – | O=C(O)CCN1CCc2oc(-c3ccc(OCc4ccccc4)cc3)nc2C1 [Compound 47] | <5 | 8.0 | – | <5.5 |
| 0.794 | 0.00398 | 0.0316 | CC(CN1CCc2oc(-c3ccc(OCc4ccc(Cl)cc4)cc3)cc2C1)C(=O)O (stereo not drawn) [Compound 77, 3-{2-[4-(4-Chloro-benzyloxy)-phenyl]-6,7-dihydro-4H-furo[3,2-c]pyridine-5-yl}-2-methyl-propionic acid] | – | – | – | – |
| – | – | – | O=C(O)CCCN1CCc2oc(-c3ccc(OCc4ccccc4)cc3)nc2C1 [Compound 53, 4-{2-[4-Benzyloxy-phenyl]-6,7-dihydro-H-oxazolo[4,5-c]pyridine-5-yl}-butyric acid] | <5 | 7.9 | <4.5 | – |
| – | – | – | CC(CN1CCc2oc(-c3ccc(OCc4ccc(Cl)cc4)cc3)nc2C1)C(=O)O (stereo not drawn) [Compound 157, 3-{2-[4-(4-Chloro-benzyloxy)-phenyl]-6,7-dihydro-H-oxazolo[4,5-c]pyridine-5-yl}-2-methyl-propionic acid] | 5.3 | 8.1 | – | 6.2 |
| – | – | – | CC(CC(=O)O)N1CCc2oc(-c3ccc(OCc4cccc(F)c4F)cc3)nc2C1 (stereo not drawn) [Compound 175] | 5.8 | 8.3 | – | <5.5 |
| – | – | – | O=C(O)C1CC(N2CCc3oc(-c4ccc(OCc5ccc(OC(F)(F)F)cc5)cc4)nc3C2)C1 (stereo not drawn) [Compound 306, 3-{2-[4-(4-Trifluoromethoxybenzyloxy)-phenyl]-6,7-dihydro-H-oxazolo[4,5-c]pyridine-5-yl}-cyclobutane carboxylic acid] | <5.0 | 8.1 | <5 | – |
| – | – | – | O=C(O)CCCN1CCc2oc(-c3ccc(OCc4ccc(Cl)c(Cl)c4)cc3F)nc2C1 [Compound 227, 4-{2-[4-(3,4-Dichloro-benzyloxy)-2-fluoro-phenyl]-6,7-dihydro-H-oxazolo[4,5-c]pyridine-5-yl}-butyric acid] | <6.0 | 8.5 | – | 6.0 |
| > 10 | 0.00794 | 0.251 | CC(CC(=O)O)N1CCc2oc(-c3ccc(OCc4ccccc4)cc3)cc2C1 (stereo not drawn) [Compound 76, 3-{2-[4-Benzyloxy-phenyl]-6,7-dihydro-4H-furo[3,2-c]pyridine-5-yl}-butyric acid] | – | – | – | – |
| – | – | – | CC(CN1CCc2oc(-c3ccc(OCc4ccc(C(F)(F)F)cc4)cc3)nc2C1)C(=O)O (stereo not drawn) [Compound 156, 3-{2-[4-(4-Trifluoromethyl-benzyloxy)-phenyl]-6,7-dihydro-H-oxazolo[4,5-c]pyridine-5-yl}-2-methyl-propionic acid] | 5.5 | 8.4 | – | 6.2 |
| – | – | – | Cc1cc(OCc2ccccc2F)ccc1-c1nc2c(o1)CCN(CCCC(=O)O)C2 [Compound 89, 4-{2-[4-(2-Fluoro-benzyloxy)-2-methyl-phenyl]-6,7-dihydro-H-oxazolo[4,5-c]pyridine-5-yl}-butyric acid] | <5.0 | 8.2 | – | 5.9 |
| – | – | – | CC(CN1CCc2oc(-c3ccc(OCc4ccc(C(F)(F)F)cc4)cc3F)nc2C1)C(=O)O (stereo not drawn) [Compound 271, 3-{2-[4-(4-Trifluoromethyl-benzyloxy)-2-fluoro-phenyl]-6,7-dihydro-H-oxazolo[4,5-c]pyridine-5-yl}-2-methyl-propionic acid] | 5.4 | 8.0 | – | 6.2 |
| – | – | – | O=C(O)CCCN1CCc2oc(-c3ccc(OCc4ccc(C(F)(F)F)cc4)cc3F)nc2C1 [Compound 85, 4-{2-[4-(4-Trifluoromethyl-benzyloxy)-2-fluoro-phenyl]-6,7-dihydro-H-oxazolo[4,5-c]pyridine-5-yl}-butyric acid] | 6.3 | 8.6 | – | <5.5 |
| – | – | – | O=C(O)CCCN1CCc2oc(-c3ccc(OCc4cccc(F)c4F)cc3)nc2C1 [Compound 57] | <5 | 8.0 | – | <5.5 |
| – | – | – | O=C(O)C1CC(N2CCc3oc(-c4ccc(OCc5ccc(OC(F)(F)F)cc5)cc4)nc3C2)C1 (stereo not drawn) [Compound 307, 3-{2-[4-(4-Trifluoromethoxybenzyloxy)-phenyl]-6,7-dihydro-H-oxazolo[4,5-c]pyridine-5-yl}-cyclobutane carboxylic acid] | <5.0 | 7.3 | <5 | – |
| – | – | – | O=C(O)C1CC(N2CCc3oc(-c4ccc(OCc5ccc(F)c(F)c5)cc4)nc3C2)C1 (stereo not drawn) [Compound 278, 3-{2-[4-(3,4-Difluorobenzyloxy)-phenyl]-6,7-dihydro-H-oxazolo[4,5-c]pyridine-5-yl}-cyclobutane carboxylic acid] | <5 | 7.4 | <5 | – |
| – | – | – | O=C(O)CCCN1CCc2oc(-c3ccc(OCc4ccc(Cl)cc4)c(F)c3)nc2C1 [Compound 211, 4-{2-[4-(4-Chloro-benzyloxy)-3-fluoro-phenyl]-6,7-dihydro-H-oxazolo[4,5-c]pyridine-5-yl}-butyric acid] | <5.0 | 8.3 | – | 6.1 |
| – | – | – | O=C(O)CCCN1CCc2oc(-c3ccc(OCc4ccccc4F)cc3F)cc2C1 [Compound 73, 4-{2-[4-(2-Fluoro-benzyloxy)-2-fluoro-phenyl]-6,7-dihydro-4H-furo[3,2-c]-pyri-dine-5-yl}-butyric acid] | 6.3 | 8.2 | – | 8.0 |
| 3.16 | 0.0158 | 0.1 | O=C(O)CCN1CCc2oc(-c3ccc(OCc4ccccc4F)cc3)cc2C1 [Compound 33, 3-{2-[4-(2-Fluoro-benzyloxy)-phenyl]-6,7-dihydro-4H-furo[3,2-c]pyridine-5-yl}-propionic acid] | – | – | – | – |

Source: patent US9670220B2, “Fused heterocyclic derivatives as S1P modulators” (Abbvie B.V., priority 2010, dated 2017)
